Several values for one entry are separate records, joined by “and”; a condition that tells them apart may be missing. Equal values may be shown once.
Tests used:
Hokkaido virus NA = Hokkaido virus NA (Influenza A virus, UniProt Q7TER1); assay type: biochemical, Influenza virus strain A/Hokkaido/15/02 H1N1
[1] = biological target: Construct 2 (recombinant Hokkaido N1 NA, GCN4-pLI stalk) (Influenza A virus, UniProt Q7TER1); assay type: biochemical, Influenza virus strain A/Hokkaido/15/02 H1N1
[2] = biological target: Construct 4 (recombinant Hokkaido N1 NA, Tetrabrachion stalk) (Influenza A virus, UniProt Q7TER1); assay type: biochemical, Influenza virus strain A/Hokkaido/15/02 H1N1
Construct 4 (recombinant Hokkaido N1 NA, Tetrabrachion stalk), sequence (Q7TER1 70-470): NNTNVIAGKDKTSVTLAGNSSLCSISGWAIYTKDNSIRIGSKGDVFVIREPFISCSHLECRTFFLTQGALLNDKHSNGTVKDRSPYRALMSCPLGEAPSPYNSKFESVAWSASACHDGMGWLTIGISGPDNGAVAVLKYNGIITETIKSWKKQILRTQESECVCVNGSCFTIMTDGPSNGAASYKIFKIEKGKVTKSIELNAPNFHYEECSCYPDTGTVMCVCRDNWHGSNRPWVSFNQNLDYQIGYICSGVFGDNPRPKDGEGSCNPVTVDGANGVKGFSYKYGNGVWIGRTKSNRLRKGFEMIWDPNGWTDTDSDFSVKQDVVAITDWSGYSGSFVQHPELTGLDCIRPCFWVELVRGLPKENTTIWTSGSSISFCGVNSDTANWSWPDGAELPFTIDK

[3] = biological target: Construct 4: FLAG-tagged recombinant Hokkaido N1 neuraminidase with an artificial Tetrabrachion stalk (Staphylothermus marinus | influenza A virus A/Hokkaido/15/02 (H1N1)); assay: SEC

Construct 2 (recombinant Hokkaido N1 NA, GCN4-pLI stalk), sequence (Q7TER1 70-470): as above
Hokkaido virus NA, sequence (Q7TER1 entry or part of it, added parts left off): as the sequence (Q7TER1 70-470) above

`CC(=O)N[C@H]1[C@H]([C@H](O)[C@H](O)CO)OC(Oc2ccc3c(C)cc(=O)oc3c2)(C(=O)O)C[C@@H]1O` (stereo partly drawn) [MUNANA, 4-Methylumbelliferyl N-acetyl-a-D-Neuraminic acid] was tested, and the “K m value for MUNANA” value (Hokkaido virus NA) was 24.1 µM and 24.1 ± 1.1 µM, the “K m value for MUNANA” value [1] was 54.4 µM and 54.1 µM and 54.1 ± 4.4 µM and the “K m value for MUNANA” value [2] was 34.7 µM and 34.7 ± 1.9 µM.
“Construct 4: FLAG-tagged recombinant Hokkaido N1 neuraminidase with an artificial Tetrabrachion stalk (enzyme)” showed a stoichiometry N [3] of 4.

— paper PMC3034727 (PLoS ONE, 2011)
